Test results reported in patent US4104306A, “12A-Deoxy chelocardin” (Abbott Laboratories, priority 1976, dated 1978).
Structures can show the parent of a compound that is named as a salt.

How the values were obtained:
Format in all cases: cell-based
[1] = system: Diplococcus pneumoniae 6301; test: tube dilution test; conditions: Streptococcus pneumoniae, broth with 20% horse serum, read-out: minimum inhibitory concentration (MIC)
Procedure: The antibacterial activity of the above material was tested in the usual fashion, using a two-fold, brain-heart infusion agar (BHI 10 ml/plate) dilution test with 12 different organisms. The following minimum inhibitory concentrations (MIC) were determined: | *tube dilution test; broth container with 20% horse serum

Proteus mirabilis Fin #9 = test: two-fold brain-heart infusion agar dilution test; conditions: BHI agar dilution, 10 ml/plate, read-out: minimum inhibitory concentration (MIC)
Procedure: (§1) The antibacterial activity of the above material was tested in the usual fashion, using a two-fold, brain-heart infusion agar (BHI 10 ml/plate) dilution test with 12 different organisms. The following minimum inhibitory concentrations (MIC) were determined: […]

Enterococcus 89 = test: two-fold brain-heart infusion agar dilution test; conditions: BHI agar dilution, 10 ml/plate, read-out: minimum inhibitory concentration (MIC)
Procedure: as §1

[2] = system: Klebsiella pneumoniae 8045; test: two-fold brain-heart infusion agar dilution test; conditions: BHI agar dilution, 10 ml/plate, read-out: minimum inhibitory concentration (MIC)
Procedure: as §1

Escherichia coli Juhl = test: two-fold brain-heart infusion agar dilution test; conditions: BHI agar dilution, 10 ml/plate, read-out: minimum inhibitory concentration (MIC)
Procedure: as §1

[3] = system: Salmonella typhimurium Ed. #9; test: two-fold brain-heart infusion agar dilution test; conditions: Salmonella enterica, BHI agar dilution, 10 ml/plate, read-out: minimum inhibitory concentration (MIC)
Procedure: as §1

Staph. aureus 45 = test: two-fold brain-heart infusion agar dilution test; conditions: Staphylococcus aureus, BHI agar dilution, 10 ml/plate, read-out: minimum inhibitory concentration (MIC)
Procedure: as §1

[4] = system: Pasteurella multocida 10544; test: two-fold brain-heart infusion agar dilution test; conditions: BHI agar dilution, 10 ml/plate, read-out: minimum inhibitory concentration (MIC)
Procedure: as §1

[5] = system: Streptococcus pyrogenes C203; test: two-fold brain-heart infusion agar dilution test; conditions: BHI agar dilution, 10 ml/plate, read-out: minimum inhibitory concentration (MIC)
Procedure: as §1

Staph. aureus Smith = test: two-fold brain-heart infusion agar dilution test; conditions: Staphylococcus aureus, BHI agar dilution, 10 ml/plate, read-out: minimum inhibitory concentration (MIC)
Procedure: as §1

[6] = system: Pseudomonas aeruginosa BMH #10; test: two-fold brain-heart infusion agar dilution test; conditions: BHI agar dilution, 10 ml/plate, read-out: minimum inhibitory concentration (MIC)
Procedure: as §1

[7] = system: Proteus vulgaris Abbott JJ; test: two-fold brain-heart infusion agar dilution test; conditions: BHI agar dilution, 10 ml/plate, read-out: minimum inhibitory concentration (MIC)
Procedure: as §1

MIC [1]: 25 µg/mL | MIC (Proteus mirabilis Fin #9): 6.2 µg/mL | MIC (Enterococcus 89): 6.2 µg/mL | MIC [2]: 6.2 µg/mL | MIC (Escherichia coli Juhl): 25 µg/mL | MIC [3]: 6.2 µg/mL | MIC (Staph. aureus 45): 3.1 µg/mL | MIC [4]: 0.39 µg/mL | MIC [5]: 6.2 µg/mL | MIC (Staph. aureus Smith): 3.1 µg/mL | MIC [6]: 100 µg/mL | MIC [7]: 3.1 µg/mL
SMILES: CC(=O)C1=C(O)C(N)C2Cc3c(c(O)c4c(O)c(C)ccc4c3C)C(O)=C2C1=O (stereo not drawn) [12a-deoxychelocardin hydrobromide]
